According to US20110003796A1, “METHOD FOR THE TREATMENT OF PSYCHIC DISORDERS” (Consejo Nacional de Investigaciones Cientificas y Tecnicas …, priority 2009, published 2011):
“Also recorded” adds a separate entry of the source. Where a name gives a salt, the structure may show the parent alone.

How the values were obtained:
[1] = Body weight gain during chronic treatment; assay type: in vivo, rat (male Wistar)
Experimental: Tests were performed to analyze the body weight gain during chronic treatments with antidepressants and/or omega-3 fatty acids.
(§1) The experiments were carried out with male Wistar rats with a body weight of 200-386 g. Rats were kept in a cycle of 12 hours of light (8:00 a 20:00) and 12 hours of darkness with free access to water and food except during the tests. The rats were divided in four groups, housed in individual polyethylene cages of with three or four rats each (55×38×30 cm) and fed with standard diet for the controls (C) or diet supplemented with omega-3 fatty acids (ω3). The animals were used only once in each test. All tests were performed in agreement with the Guidelines for the Care and Use of Laboratory Animals provided by National Institutes of Health of United States of America.

rats [2] = details: cited from earlier work; for antidepressant effect in prior studies: FLX 1 mg/kg, MTZ 1 mg/kg; for effect on the FST in prior studies: FLX 10 mg/kg, MTZ 20 mg/kg, similar test conditions
rats [3] = assay: Forced swimming test (FST); assay type: in vivo, rat (male Wistar); details: for climbing in FST / immobility in FST / swimming in FST: 16 days
Experimental: as §1
The Fluoxetine Hydrochloride (FLX) and mirtazapine (MTZ) were administered intra-peritoneally (IP) in a volume equivalent to 1 cc/kg and were freshly prepared each morning. The FLX was dissolved in distilled water and MZT was solubilized in isotonic saline (0.9% NaCl) plus three or four drops of glacial acetic acid to dissolve this solution. […] All control rats were given injections of saline.
In all cases antidepressant drugs or the saline solution were given once a day for 16 days, the final injection was given 24 hours before the test session (FIGS. 6 and 18).
The omega-3 fatty acids were given as diet supplement in the food enriched with salmon oil for 16 days. Each 1000 mg of highly concentrated salmon oil contains about 30% of omega-3, from which 17% is EPA and 13% is DHA; therefore there were 40 mg of omega-3 fatty acids per gram of enriched food. Rats of the ω3 group received a dose of about 0.72 g/kg/day of omega-3 fatty acids.
The swimming sessions were carried out placing the rats in Plexiglas cylinders (46 cm of height and 20 cm of diameter) which had been previously filled with water (23-25° C.) to 30 cm from the bottom. All swimming sessions were performed between 12:00 and 18:00 hours.
Two sessions were performed: an initial pre-test for 15 minutes followed by a 5-minute test, after 16 days. The drugs were given between both sessions.
Rats were studied at 5-second intervals during the session of forced swimming session. At each interval of 5 seconds, the predominant behavior was assigned to one of the following categories: (1) immobility: flotation in water without fighting, only doing the necessary movements to keep the head out of the water; (2) swimming, making the movements of active swimming, plus the ones necessary to keep simply the head out of the water (i.e., moving around the cylinder); and (3) climbing, making active movements with fore hints out of the water, usually against walls. The scoring for each behavior was expressed as the total of records per session of 5 minutes.

rats [4] = assay: Open field test (locomotor activity); assay type: in vivo, rat (male Wistar)
Experimental: These studies were performed exactly the same way as the studies of FST had been carried. All rats that experimented the first day of FST (pre-test), received the different treatments during 16 days. On day 17 they were placed in the cage of open field (60×60×60 cm) with the floor divided in squares (15×15 cm). The tests were performed between 14:00 and 17:00 hours, illuminated with an electric bulb of 75 W and placed 75 cm above the floor of the cage, in a quiet room. The locomotion was measured by the number of squares they enter with the four legs (counts), over a period of 5 minutes. After withdrawing the animal, the open field was carefully cleaned with a damp wipe.

[5] = fluoxetine 10 mg/kg ip and/or omega-3 0.72 g/kg
[6] = mirtazapine 20 mg/kg ip and/or omega-3 0.72 g/kg

Row | SMILES | body weight ([1]; fluoxetine 10 mg/kg and/or omega-3 0.72 g/kg, vs control group) | body weight gain ([1]; fluoxetine sub-optimal dose 1 mg/kg) | antidepressant effect in prior studies (rats [2]) | effect on the FST in prior studies (rats [2]) | effect of treatment on behaviors in FST (rats [3]; fluoxetine 1 mg/kg ip alone, two-factor ANOVA) | climbing in FST (rats [3]; [5]) | immobility in FST (rats [3]; [5]) | swimming in FST (rats [3]; [5]) | effect of treatment on the FST (rats [3]; fluoxetine sub-optimal doses lower than 1 mg/kg (0.1 and 0.5 mg/kg) alone) | spontaneous locomotor activity in open field (rats [4]; fluoxetine 1 mg/kg and/or omega-3 0.72 g/kg) | spontaneous locomotor activity in open field test (rats [4]; fluoxetine 10 mg/kg and/or omega-3 0.72 g/kg) | body weight gain ([1]; mirtazapine 20 mg/kg and/or omega-3 0.72 g/kg, chronic) | body weight gain ([1]; mirtazapine sub-optimal dose 1 mg/kg and/or omega-3 0.72 g/kg, 1 mg/kg) | body weight gain ([1]; mirtazapine sub-optimal dose 1 mg/kg and/or omega-3 0.72 g/kg, listed as Mirtazapine, 1 mg/kg) | climbing in FST (rats [3]; [6]) | immobility in FST (rats [3]; [6]) | swimming in FST (rats [3]; [6]) | time of immobility in FST (rats [3]; mirtazapine sub-optimal dose 1 mg/kg ip and/or omega-3 0.72 g/kg/day, vs control) | spontaneous locomotor activity in open field (rats [4]; mirtazapine 1 mg/kg and/or omega-3 0.72 g/kg/day) | spontaneous locomotor activity in open field test (rats [4]; mirtazapine 20 mg/kg and/or omega-3 0.72 g/kg)
1 | CNCCC(Oc1ccc(C(F)(F)F)cc1)c1ccccc1 (stereo not shown) [fluoxetine, Fluoxetine Hydrochloride] | Body weight was significantly lower | Body weight gain was reduced although in a lesser extend | not showing an antidepressant effect | produce a more robust effect on the FST | no effect of treatment with FLX | without modifying the behavioral levels of climbing | reduces immobility | increases swimming | did not have any effect on the FST | None of these treatments with antidepressant effects in the FST affected the levels of activity | None of these treatments with antidepressant effects in the FST affected the activity levels | – | – | – | – | – | – | – | – | –
2 | CN1CCN2c3ncccc3Cc3ccccc3C2C1 (stereo not shown) [mirtazapine] | – | – | not showing an antidepressant effect | produce a more robust effect on the FST | – | – | – | – | – | – | – | significantly reduced the body weight gain; also recorded: significant decrease in body weight | does not interfere with the weight gain | did not produce any effect | increase | significantly reduced the immobility | corresponding increase in the swimming | did not significantly change the time of immobility | did not interfere with the locomotor activity | did not interfere with the responses of locomotor activity
